Test results taken from PubChem BioAssay (NCI).
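Briefly, cells in 96-well plates were exposed to five compound concentrations for 48 h, and endpoints were estimated by linear interpolation. TGI marks complete inhibition of growth.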

Assays:
Test in all cases: inhibition of tumour cell growth, NCI panel, 48 h
OVCAR-4 ovarian = system: OVCAR-4 ovarian
SK-OV-3 ovarian = system: SK-OV-3 ovarian
SK-MEL-5 melanoma = system: SK-MEL-5 melanoma
DU-145 prostate = system: DU-145 prostate
ACHN renal = system: ACHN renal
M14 melanoma = system: M14 melanoma
UACC-257 melanoma = system: UACC-257 melanoma
HCT-116 colon = system: HCT-116 colon
HCC-2998 colon = system: HCC-2998 colon
IGROV1 ovarian = system: IGROV1 ovarian
HCT-15 colon = system: HCT-15 colon
MDA-N = system: MDA-N
SK-MEL-28 melanoma = system: SK-MEL-28 melanoma
SN12C renal = system: SN12C renal
SNB-19 CNS = system: SNB-19 CNS
PC-3 prostate = system: PC-3 prostate
RXF 393 renal = system: RXF 393 renal
CCRF-CEM leukemia = system: CCRF-CEM leukemia
SW-620 colon = system: SW-620 colon
RPMI-8226 leukemia = system: RPMI-8226 leukemia
KM12 colon = system: KM12 colon
TK-10 renal = system: TK-10 renal
HS 578T breast = system: HS 578T breast
OVCAR-5 ovarian = system: OVCAR-5 ovarian
OVCAR-3 ovarian = system: OVCAR-3 ovarian
786-0 renal = system: 786-0 renal
HL-60(TB) leukemia = system: HL-60(TB) leukemia
MOLT-4 leukemia = system: MOLT-4 leukemia
NCI-H23 lung = system: NCI-H23 lung
HT29 colon = system: HT29 colon
SF-295 CNS = system: SF-295 CNS
UACC-62 melanoma = system: UACC-62 melanoma
BT-549 breast = system: BT-549 breast
HOP-62 NSCLC = system: HOP-62 NSCLC
NCI/ADR-RES ovarian = system: NCI/ADR-RES ovarian
A549 NSCLC = system: A549 NSCLC
OVCAR-8 ovarian = system: OVCAR-8 ovarian
SF-268 CNS = system: SF-268 CNS
MCF7 breast = system: MCF7 breast
MALME-3M melanoma = system: MALME-3M melanoma
SK-MEL-2 melanoma = system: SK-MEL-2 melanoma
NCI-H460 lung = system: NCI-H460 lung
K-562 leukemia = system: K-562 leukemia
COLO 205 colon = system: COLO 205 colon
UO-31 renal = system: UO-31 renal
T-47D breast = system: T-47D breast
MDA-MB-231 breast = system: MDA-MB-231 breast
CAKI-1 renal = system: CAKI-1 renal
NCI-H226 lung = system: NCI-H226 lung
SNB-75 CNS = system: SNB-75 CNS
U251 CNS = system: U251 CNS
EKVX NSCLC = system: EKVX NSCLC
MDA-MB-435 = system: MDA-MB-435
LOX IMVI melanoma = system: LOX IMVI melanoma
A498 renal = system: A498 renal
NCI-H522 lung = system: NCI-H522 lung
SF-539 CNS = system: SF-539 CNS

Measured: TGI

O=S(=O)(c1ccc(Cl)cc1)c1ccccc1C1=NCCN1
not listed: LOX IMVI melanoma | A498 renal | NCI-H522 lung | SF-539 CNS
> 100 µM: all other assays above

Cc1cc2c(O)c(c1)CN(Cc1ccccc1)Cc1cc(C)cc(c1O)CN(Cc1ccccc1)Cc1cc(C)cc(c1O)CN(Cc1ccccc1)C2
95.2 µM: SK-MEL-2 melanoma
not listed: EKVX NSCLC
> 100 µM: all other assays above
